From ChEMBL document CHEMBL1772992, “Synthesis, in silico docking experiments of new 2-pyrrolidinone derivatives and study of their anti-inflammatory activity” (Bioorg Med Chem, 2011)
The source made the active and inactive calls. No cut-off for these calls is given here.

What was measured:
[1] = system: Radical scavenging activity; assay: Antioxidant activity assessed as DPPH free radical scavenging activity after 20 to 60 mins by spectrophotometry; format: functional; set-up: concentration or dose not given beside the values
[2] = Antioxidant activity against AAPH-induced lipid peroxidation assessed as linoleic acid oxidation to diene hydroperoxide at 0.1 mM by UV-visible spectrophotometry; format: functional
Glycine max = assay: Inhibition of soybean LOX assessed as inhibition of sodium linoleate to 13-hydroperoxylinoleic acid conversion at 0.1 mM by UV-visible spectrophotometry
Rattus norvegicus = assay: Antiinflammatory activity in Fisher 344 rat assessed as inhibition of carrageenan-induced paw edema at 0.01 mmol/kg, ip administered simultaneously with carrageenan measured after 3.5 hrs relative to control; format: functional; details: Fisher 344, ip
[3] = Inhibition of soybean LOX assessed as inhibition of sodium linoleate to 13-hydroperoxylinoleic acid conversion by UV-visible spectrophotometry; set-up: species or system Glycine max

Row | Compound | inhibition (Glycine max) | IC50 [3] [µM] | Activity [1] | inhibition [2] | inhibition in vivo at 10 µmol/kg (Rattus norvegicus) [%]
1 | O=C1CC[C@@H](Cn2ccnc2)N1Cc1cccc(O)c1 | inactive | – | 29% | 13% | –
2 | O=C1CC[C@@H](Cn2ccnc2)N1Cc1ccccc1-c1nn[nH]n1 | 5.2% | – | 30% | 32% | –
3 | COc1ccc2c(c1)c(CC(=O)O)c(C)n2C(=O)c1ccc(Cl)cc1 [INDOMETHACIN] | – | – | – | – | 47
4 | Cc1c(C)c2c(c(C)c1O)CCC(C)(C(=O)O)O2 (stereo not drawn) | – | – | – | 63% | –
5 | O=C(O)/C=C/c1ccc(O)c(O)c1 [CAFFEIC ACID] | – | 600 | 5.5% | 17% | –
6 | CC(Cc1ccc(O)c(O)c1)C(C)Cc1ccc(O)c(O)c1 (stereo not drawn) | 84% | – | 81% | – | –

More lines, main results first:

Row | inhibition (Glycine max) | IC50 [3] [µM] | Compound | Activity [1] | inhibition [2] | inhibition in vivo at 10 µmol/kg (Rattus norvegicus) [%]
7 | inactive | – | COC(=O)c1ccc(CN2C(=O)CC[C@H]2Cn2ccnc2)cc1 | 6% | 13% | –
8 | inactive | – | COC(=O)c1cncn1C[C@@H]1CCC(=O)N1Cc1ccc(C(=O)O)cc1 | 26% | inactive | –
9 | 13% | – | O=C1CC[C@@H](Cn2ccnc2)N1Cc1ccccc1 | 9% | 11% | –
10 | – | 80 | O=C(O)c1ccc(CN2C(=O)CC[C@H]2Cn2ccnc2)cc1 | 6% | 2% | 41
11 | – | 70.5 | COC(=O)c1ccc(CN2C(=O)CC[C@H]2Cn2cncc2C(=O)O)cc1 | 3% | 96% | 34
12 | 81% | – | O=C(O)c1cncn1C[C@@H]1CCC(=O)N1Cc1ccccc1 | inactive | inactive | –
